How the values were obtained:
[1] = tested on: PGE2 production in HCA-7 colon cancer cells; assay: PGE2 production assay in IL-1β-treated HCA-7 cells; format: cell-based; settings: Homo sapiens, HCA-7, read-out: PGE2 (%): % of inhibition of PGE2 levels in HCA-7 cells, 1 μM concentration; ± SD (n = 3); NR = no observed reduction
COX-2 = target: T1, COX-2 (Homo sapiens, UniProt P35354); assay: COX-2 cell-free assay; settings: read-out: COX-2 (%): % of inhibition of COX-2 levels in vitro
T1 sequence (P35354 18-604): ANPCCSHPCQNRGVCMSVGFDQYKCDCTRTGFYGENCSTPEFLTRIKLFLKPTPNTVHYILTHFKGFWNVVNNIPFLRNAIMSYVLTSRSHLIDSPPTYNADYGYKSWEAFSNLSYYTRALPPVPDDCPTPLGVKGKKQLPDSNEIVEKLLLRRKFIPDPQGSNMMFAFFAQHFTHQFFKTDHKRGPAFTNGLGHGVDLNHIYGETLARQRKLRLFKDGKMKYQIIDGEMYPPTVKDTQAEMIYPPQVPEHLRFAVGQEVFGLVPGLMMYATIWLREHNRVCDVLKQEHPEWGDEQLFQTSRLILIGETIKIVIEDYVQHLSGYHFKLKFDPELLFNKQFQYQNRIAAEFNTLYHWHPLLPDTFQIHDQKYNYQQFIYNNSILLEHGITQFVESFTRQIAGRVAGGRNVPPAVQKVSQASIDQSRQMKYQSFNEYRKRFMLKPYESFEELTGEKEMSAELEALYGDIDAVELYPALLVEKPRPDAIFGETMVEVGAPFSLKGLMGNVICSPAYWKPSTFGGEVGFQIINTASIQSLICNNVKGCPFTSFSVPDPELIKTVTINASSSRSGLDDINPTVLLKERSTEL

inhibition at 5 µM (COX-2) | SMILES | inhibition at 1 µM [1]
– | O=C(c1ccccc1)c1sc(Nc2ccc3c(c2)OCO3)nc1-c1ccccc1 [5a] | < 0%
– | COc1ccc(Nc2nc(-c3ccccc3)c(C(=O)c3ccccc3)s2)cc1 [5c] | < 0%
-16.9 ± 10% | Cc1nc(Nc2ccc(Oc3ccccc3)cc2)sc1C(C)O (stereo not drawn) [5l] | –
